Assay results from US9321764B2, “Dihydro-pyrrolopyridinone inhibitors” (AbbVie Inc., priority 2013, dated 2016).
pEC50, pKi: −log10 of the molar value.

Columns and labels:
BRD4 (BDII_E352-M457) = molecular target: T1, BRD4 (BDII_E352-M457) (Homo sapiens, UniProt O60885); assay: TR-FRET bromodomain binding assay, second bromodomain of BRD4; details: His-tagged BD2, 30 nM Alexa647 probe; TR-FRET protocol A-E given per row
T1 construct: proliferation; Protocol; made in house
Procedure, shortened: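 His-tagged BRD4 BD2 ([…]) competed against an Alexa647-labelled BET-inhibitor probe in TR-FRET. Buffer was 20 mM sodium phosphate pH 6.0, 50 mM NaCl, 1 mM EDTA, 0.01% Triton X-100, 1 mM DTT, with method D DMSO series of 2.5 mM–800 nM (stock range). IC50 from 4-parameter fit, Ki from probe Kd and concentration.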

[1] = test system: breast cancer cell line MX-1; assay: MX-1 cell line proliferation assay; format: cell-based; details: Homo sapiens, MX1, 72 h, MX-1 cells, 3-day proliferation assay, Cell Titer Glo; read-out: Cellular proliferation EC50
Method: The impact of compounds of the Examples on cancer cell proliferation was determined using the breast cancer cell line MX-1 (ATCC) in a 3-day proliferation assay and the data are reported in Table 1. MX-1 cells were maintained in RPMI 1640 medium (Sigma) supplemented with 10% FBS at 37° C. and an atmosphere of 5% CO2. For compound testing, MX-1 cells were plated in 96-well black bottom plates at a density of 5000 cells/well in 90 μL of culture media and incubated at 37° overnight to allow cell adhesion and spreading. Compound dilution series were prepared in DMSO via a 3-fold serial dilution from 3 mM to 0.1 μM. The DMSO dilution series were then diluted 1:100 in phosphate buffered saline, and 10 μL of the resulted solution were added to the appropriate wells of the MX-1 cell plate. The final compound concentrations in the wells were 3, 1, 0.3, 0.1, 0.03, 0.01, 0.003, 0.001, 0.0003 and 0.0001 μM.
Luminescence readings from the Cell Titer Glo assay were normalized to the DMSO treated cells and analyzed using the GraphPad Prism software with sigmoidal curve fitting to obtain EC50s. The minimum significant ratio (MSR) was determined to evaluate assay reproducibility (Eastwood et al., (2006) J Biomol Screen, 11: 253-261).

BRD4 (BDI_K57-E168) = molecular target: T2, BRD4 (BDI_K57-E168) (Homo sapiens, UniProt O60885); assay: TR-FRET bromodomain binding assay, first bromodomain of BRD4; details: His-tagged BD1, 100 nM Alexa647 probe; TR-FRET protocol A-E given per row
T2 construct: BD1: amino acids K57-E168; made in house
Procedure, shortened: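 Ki values come from IC50s (4-parameter logistic) corrected for probe Kd and concentration, normalised to no-compound and 1 μM unlabelled probe controls. Probe displacement by TR-FRET used 8 nM BD1 (K57-E168), 100 nM Alexa647 probe, 1 nM Eu-anti-His, 20 mM phosphate pH 6.0, 2% DMSO, 1 h, room temperature.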

| SMILES | pKi (BRD4 (BDII_E352-M457)) | pEC50 [1] | pKi (BRD4 (BDI_K57-E168)) |
| --- | --- | --- | --- |
| Cc1nn(-c2ccccc2)c(Cl)c1CNc1ccc(Oc2ccc(F)cc2F)c(-c2cn(C)c3c(=O)[nH]ccc23)c1 [Example 171, 3-[5-{[(5-chloro-3-methyl-1-phenyl-1H-pyrazol-4-yl)methyl]amino}-2-(2,4-difluorophenoxy)phenyl]-1-methyl-1,6-dihydro-7H-pyrrolo[2,3-c]pyridin-7-one] | 6.42 | 6.70 | 6.75 |
| Cn1cc(-c2cc(NCc3ccccc3C#N)ccc2Oc2ccc(F)cc2F)c2cc[nH]c(=O)c21 [Example 178, 2-({[4-(2,4-difluorophenoxy)-3-(1-methyl-7-oxo-6,7-dihydro-1H-pyrrolo[2,3-c]pyridin-3-yl)phenyl]amino}methyl)benzonitrile] | 6.62 | 6.63 | 7.51 |
| Cn1cc(-c2cc(CNCc3ccoc3)ccc2Oc2ccc(F)cc2F)c2cc[nH]c(=O)c21 [Example 127, 3-[2-(2,4-difluorophenoxy)-5-{[(furan-3-ylmethyl)amino]methyl}phenyl]-1-methyl-1,6-dihydro-7H-pyrrolo[2,3-c]pyridin-7-one] | 6.32 | 6.02 | 6.21 |
| Cn1cc(-c2cc(NC(=O)Cc3cccc(Oc4ccccc4)c3)ccc2Oc2ccc(F)cc2F)c2cc[nH]c(=O)c21 [Example 154, N-[4-(2,4-difluorophenoxy)-3-(1-methyl-7-oxo-6,7-dihydro-1H-pyrrolo[2,3-c]pyridin-3-yl)phenyl]-2-(3-phenoxyphenyl)acetamide] | 6.08 | 5.80 | 5.75 |
| Cn1cc(-c2cc(CNS(=O)(=O)Cc3ccc(C#N)cc3)ccc2Oc2ccc(F)cc2F)c2cc[nH]c(=O)c21 [Example 134, 1-(4-cyanophenyl)-N-[4-(2,4-difluorophenoxy)-3-(1-methyl-7-oxo-6,7-dihydro-1H-pyrrolo[2,3-c]pyridin-3-yl)benzyl]methanesulfonamide] | 6.29 | 6.34 | 6.99 |
| Cn1cc(-c2cc(NCc3cn4c(n3)CCC4)ccc2Oc2ccc(F)cc2F)c2cc[nH]c(=O)c21 [Example 176, 3-{2-(2,4-difluorophenoxy)-5-[(6,7-dihydro-5H-pyrrolo[1,2-a]imidazol-2-ylmethyl)amino]phenyl}-1-methyl-1,6-dihydro-7H-pyrrolo[2,3-c]pyridin-7-one] | 7.00 | 6.54 | 7.37 |
| Cn1cc(-c2cc(S(C)(=O)=O)ccc2NCc2ccc(C#N)cc2)c2cc[nH]c(=O)c21 [Example 46, 4-({[2-(1-methyl-7-oxo-6,7-dihydro-1H-pyrrolo[2,3-c]pyridin-3-yl)-4-(methylsulfonyl)phenyl]amino}methyl)benzonitrile] | 5.96 | 6.32 | 6.69 |
| Cn1cc(-c2cc(CNCc3c[nH]cn3)ccc2Oc2ccc(F)cc2F)c2cc[nH]c(=O)c21 [Example 119, 3-[2-(2,4-difluorophenoxy)-5-{[(1H-imidazol-4-ylmethyl)amino]methyl}phenyl]-1-methyl-1,6-dihydro-7H-pyrrolo[2,3-c]pyridin-7-one] | 6.32 | < 5.52 | 6.22 |
| Cn1cc(-c2cc(S(C)(=O)=O)ccc2O[C@H]2CC[C@@H](O)CC2)c2cc[nH]c(=O)c21 [Example 33, 3-{2-[(cis-4-hydroxycyclohexyl)oxy]-5-(methylsulfonyl)phenyl}-1-methyl-1,6-dihydro-7H-pyrrolo[2,3-c]pyridin-7-one] | 6.56 | 6.15 | 7.47 |
| Cn1cc(-c2cc(CS(=O)(=O)Nc3nccs3)ccc2Oc2ccc(F)cc2F)c2cc[nH]c(=O)c21 [Example 104, 1-[4-(2,4-difluorophenoxy)-3-(1-methyl-7-oxo-6,7-dihydro-1H-pyrrolo[2,3-c]pyridin-3-yl)phenyl]-N-(1,3-thiazol-2-yl)methanesulfonamide] | 6.97 | < 5.52 | 7.14 |

These reach a higher pKi (BRD4 (BDII_E352-M457)). Values come first.

| pKi (BRD4 (BDII_E352-M457)) | pEC50 [1] | pKi (BRD4 (BDI_K57-E168)) | SMILES |
| --- | --- | --- | --- |
| 7.05 | 6.72 | 7.92 | Cn1cc(-c2cc(S(C)(=O)=O)ccc2OCC2(C)CC2)c2cc[nH]c(=O)c21 [Example 29, 1-methyl-3-{2-[(1-methylcyclopropyl)methoxy]-5-(methylsulfonyl)phenyl}-1,6-dihydro-7H-pyrrolo[2,3-c]pyridin-7-one] |
| 7.06 | 7.24 | 7.14 | Cn1cc(-c2cc(CS(=O)(=O)c3ccccc3)ccc2Oc2ccc(F)cc2F)c2cc[nH]c(=O)c21 [Example 58, 3-{2-(2,4-difluorophenoxy)-5-[(phenylsulfonyl)methyl]phenyl}-1-methyl-1,6-dihydro-7H-pyrrolo[2,3-c]pyridin-7-one] |
| 7.06 | 6.40 | 7.68 | Cn1cc(-c2cc(S(C)(=O)=O)ccc2OCC2CCOCC2)c2cc[nH]c(=O)c21 [Example 31, 1-methyl-3-[5-(methylsulfonyl)-2-(tetrahydro-2H-pyran-4-ylmethoxy)phenyl]-1,6-dihydro-7H-pyrrolo[2,3-c]pyridin-7-one] |
| 7.10 | 6.75 | 7.80 | Cn1cc(-c2cc(S(C)(=O)=O)ccc2Oc2ccc(F)c(F)c2)c2cc[nH]c(=O)c21 [Example 19, 3-[2-(3,4-difluorophenoxy)-5-(methylsulfonyl)phenyl]-1-methyl-1,6-dihydro-7H-pyrrolo[2,3-c]pyridin-7-one] |
| 7.28 | 6.89 | 8.03 | Cn1cc(-c2cc(S(C)(=O)=O)ccc2OCC2CCC2)c2cc[nH]c(=O)c21 [Example 28, 3-[2-(cyclobutylmethoxy)-5-(methylsulfonyl)phenyl]-1-methyl-1,6-dihydro-7H-pyrrolo[2,3-c]pyridin-7-one] |
| 7.36 | 6.93 | 7.86 | Cn1cc(-c2cc(CS(C)(=O)=O)ccc2Nc2ccccn2)c2cc[nH]c(=O)c21 [Example 203, 1-methyl-3-{5-[(methylsulfonyl)methyl]-2-(pyridin-2-ylamino)phenyl}-1,6-dihydro-7H-pyrrolo[2,3-c]pyridin-7-one] |
| 7.62 | 7.28 | 7.89 | CCS(=O)(=O)c1ccc(Oc2ccc(F)cc2F)c(-c2cn(C)c3c(=O)[nH]ccc23)c1 [Example 49, 3-[2-(2,4-difluorophenoxy)-5-(ethylsulfonyl)phenyl]-1-methyl-1,6-dihydro-7H-pyrrolo[2,3-c]pyridin-7-one] |
| 7.96 | 7.82 | 8.16 | Cn1cc(-c2cc(CS(N)(=O)=O)ccc2Oc2ccc(F)cc2F)c2cc[nH]c(=O)c21 [Example 96, 1-[4-(2,4-difluorophenoxy)-3-(1-methyl-7-oxo-6,7-dihydro-1H-pyrrolo[2,3-c]pyridin-3-yl)phenyl]methanesulfonamide] |
| 8.02 | 7.51 | 8.78 | CCS(=O)(=O)Nc1ccc(Oc2ccc(F)cc2F)c(-c2cn(C)c3c(=O)[nH]c(C(=O)NCCN4CCOCC4)cc23)c1 [Example 196, 3-{2-(2,4-difluorophenoxy)-5-[(ethylsulfonyl)amino]phenyl}-1-methyl-N-[2-(morpholin-4-yl)ethyl]-7-oxo-6,7-dihydro-1H-pyrrolo[2,3-c]pyridine-5-carboxamide] |
| 8.24 | 7.09 | 8.08 | CCS(=O)(=O)c1ccc(Oc2ccc(F)cc2F)c(-c2cn(C)c3c(=O)[nH]c(/C=C(\Cl)CCO)cc23)c1 [Example 126, 5-[(1Z)-2-chloro-4-hydroxybut-1-en-1-yl]-3-[2-(2,4-difluorophenoxy)-5-(ethylsulfonyl)phenyl]-1-methyl-1,6-dihydro-7H-pyrrolo[2,3-c]pyridin-7-one] |
| 8.32 | 8.05 | 8.39 | CNS(=O)(=O)Cc1ccc(Oc2ccc(F)cc2F)c(-c2cn(C)c3c(=O)[nH]ccc23)c1 [Example 100, 1-[4-(2,4-difluorophenoxy)-3-(1-methyl-7-oxo-6,7-dihydro-1H-pyrrolo[2,3-c]pyridin-3-yl)phenyl]-N-methylmethanesulfonamide] |
| 8.34 | 7.36 | 8.49 | CCS(=O)(=O)Nc1ccc(Oc2ccc(F)cc2F)c(-c2cn(C)c3c(=O)[nH]c(C(=O)NC)cc23)c1 [Example 200, 3-{2-(2,4-difluorophenoxy)-5-[(ethylsulfonyl)amino]phenyl}-N,1-dimethyl-7-oxo-6,7-dihydro-1H-pyrrolo[2,3-c]pyridine-5-carboxamide] |
